# Data published in patent US20140199265A1, “NUTRITIONAL COMPOSITIONS CONTAINING A NEUROLOGIC COMPONENT AND USES THEREOF” (MEAD JOHNSON NUTRITION COMPANY, priority 2013, published 2014).
# Key:
# [1] = system: human adipose-derived stem cells (hADSCs); experiment: neurogenesis / neuronal differentiation of hADSCs judged by neuronal morphology under phase contrast microscopy; type: cell-based
# Method: hADSCs were purchased from Invitrogen, also known as Life Technologies, of Carlsbad, Calif., U.S.A., and were cultured as near confluent monolayers in 100 mm culture plates within a maintenance media consisting of Complete MesenPro RS medium with growth supplement and L-glutamine obtained from Invitrogen®. The process of culturing, passage, and seeding the hADSCs is described below.
# The subculture of hADSCs was performed when cell culture reached confluence. To passage hADSCs, the following procedure is used: i) aspirate the Complete MesenPRO RS medium from the cells; ii) rinse the surface area of the cell layer with Dulbecco's phosphate buffered saline (DBPS) buffer by adding the DPBS to the side of the vessel opposite the attached cell layer and rocking the vessel back and forth several times; iii) remove the DPBS by aspiration and discard; iv) detach the cells by adding a sufficient volume of pre-warmed trypsin-EDTA solution without phenol red to cover the cell layer; v) incubate at 37° C. for approximately 7 minutes; vi) observe the cells under a microscope to determine if additional incubation is needed; vii) add 3 mL of the maintenance media to the plate, mix the cell suspension, add the suspension to a 15 mL centrifuge tube and centrifuge at 210 g for 5 minutes; viii) determine the total number of cells and percent viability using a hemacytometer; ix) add Complete MesenPRO RS medium to each vessel so that the final culture volume is 0.2 mL-0.5 mL per cm^2; x) seed the cells by adding the appropriate volume of cells to each vessel and incubate at 37° C., 5% CO2 and 90% humidity; and xi) three or four days after seeding, completely remove the medium and replace with an equal volume of Complete MesenPRO RS medium.
# Before seeding the passaged hADSCs on fresh culture plates, the surfaces of the culture ware are washed with sterile DPBS solution three times, followed by multiple rinses with sterile water. The first layer of coating is poly-L-ornithine. The coating is prepared by adding about 15 to about 20 μg/mL of poly-L-ornithine and incubating at 37° C. for one hour. The plate is washed three times with DPBS, 15 minutes per wash. The second layer of coating is bovine plasma fibronectin. The fibronectin is diluted in DPBS from stock to 1:1000 and 500 μL is added to each well. The plate is left at room temperature for one hour. One final wash with 500 μL per well of DPBS is performed and the plate is used immediately.
# The cells were then subjected to removal and reseeded at a density of 2×10^4 cells/ml (1×10^4 cells/well) onto 24-well culture plates that contained a poly-L-ornithine and bovine plasma fibronectin coating.
# Three days after seeding and priming; the culture medium was changed into neuronal differentiation medium. The culture plates were removed from the incubator and all procedures were conducted in a laminar flow hood. The culture medium was completely removed from each well. The hADSCs were then washed with sterile DPBS solution in an amount of about 1 ml per well, to remove excess culture medium. The DPBS solution was removed and replaced with neuronal differentiation medium. The formulation of the neuronal differentiation medium is such that neurogenesis would be attributed to the nutrient and not to the medium. The neuronal differentiation medium used was Neurobasal™ Medium, available from Invitrogen®, which comprises the following ingredients listed below in Table 1.
# PE was added to individual wells at various concentrations in the serum-free medium. Pre-warmed serum-free medium contains Neural Basal medium with L-glutamine, 20 ng/mL of bFGF, 20 ng/mL of EGF and N2 supplement.
# […] PE in varying concentrations was tested individually and compared to the positive control, DHA, and the negative control (no treatment) under phase contrast microscopy at 24 hours, 48 hours and 96 hours. The experiments were repeated in triplicate. […]
# [2] = system: human neuronal stem cells (hNSCs); experiment: neurogenesis of GFP-expressing hNSCs judged by morphological changes under inverted fluorescent microscopy; type: cell-based
# Method: Briefly, hNSCs were purchased from Millipore, Bellerica, Mass., U.S.A., with genetic modification to constitutively express green fluorescent protein (“GFP”). The hNSCs were cultured on laminin coated plates as recommended by the manufacturer. Both laminin and DEME/F12 were obtained from Millipore. Laminin was diluted with DMEM/F12 to 20 μg/mL. 10 ml of diluted laminin solution was added to 10 cm tissue culture dish. Then the culture dish was incubated in a 37° C., 5% CO2 incubator overnight. Just before use, the laminin solution was aspirated and rinsed once with sterile DPBS solution. hNSCs were cultured in the ReNcell NSC maintenance medium (Millipore) supplied with 20 ng/mL bFGF and 20 ng/mL EGF in a 37° C., 5% CO2 incubator. Medium was exchanged with fresh medium containing bFGF and EGF every other day thereafter.
# After hNSCs reach 80% confluence, hNSCs were ready for the differentiation experiment. Before seeding, a 96-well plate was freshly coated with 20 μg/mL laminin solution followed by a brief DPBS rinse as described above. Culture medium was removed carefully and hNSCs were dissociated within 3 ml Accutase (Millipore) in a 37° C., 5% CO2 incubator for 3 minutes. Then 5 ml of ReNcell NSC maintenance medium (Millipore) supplied with 20 ng/mL bFGF and 20 ng/mL EGF were added. The cell suspension was then transferred a sterile 15 ml conical tube and the cells were pelleted by the centrifugation at 300×g for 5 minutes. Supernatant was removed. 2 ml medium was then applied to the tube and hNSCs was resuspended thoroughly. The hNSCs were seeded on a 96-well plate at a density of 1×10^4 cell/ml (1000 cells/well, 100 μl/well).
# After attaching to the culture surface, the culture medium was switched to serum-free differentiation medium in the presence of CDP-choline, or DHA, or no treatment. The serum-free differentiation medium was prepared freshly before the switching including 40 ml DMEM/F12 (Millipore), 400 μL-Glutamine at a concentration of 200 mM (Life Technologies, Carlsbad, Calif.), 400 μl B27 solution (Life Technologies, Carlsbad, Calif.), and 40 μl Heperin (Sigma-Aldrich, St. Louis, […].) solution at a concentration of 10 mg/mL.
# The entire 96-well plate was placed under the Leica DMI4000B fluorescent microscopy, and images were taken with GFP filter under a microscope with UV light source.
# [3] = CDP-choline of 404 (so in the source), after 72 hours
molecule,measurement,setting,value
"C[N+](C)(C)CCOP(=O)(O)OP(=O)([O-])OC[C@H]1O[C@@H](n2ccc(N)nc2=O)[C@H](O)[C@@H]1O [CDP-choline, cytidine diphosphate-choline]","effect to enhance neurogenesis (neurite outgrowth, morphological changes)","[1]; 5 μM, FIG. 4C",demonstrated an effect to enhance neurogenesis
same,length of neurite outgrowth,[2]; [3],comparable to DHA at 20 μM
same,neurogenesis compared to no treatment,[2]; [3],dramatically promoted neurogenesis
CCCCCCCCCCCCC/C=C/[C@@H](O)[C@@H](CO)NC(=O)CCCCCCC [N-octanoyl-D-threo-sphingosine],neurogenesis,"[2]; 10 μM, FIG. 5E",dramatically promoted neurogenesis
"CCCCCCCCCCCCC/C=C/[C@@H](O)[C@H](CO)NC(=O)C(O)CCCCCCCCCC (stereo partly drawn) [N—(R,S)-alpha-Hydroxydodecanoyl-D-erythrosphingosine]",early neurogenesis,"[1]; 40 μM, 24 hours after treating, FIG. 5B","Early neurogenesis was also, observed"
same,effects to promote neurogenesis compared with DHA,"[1]; tested at 20 and 40 μM vs DHA 10 μM, 24 hours",moderate effects to promote neurogenesis
same,neuronal changes in terms of morphology,"[1]; tested at 20 and 40 μM, 24 hours",obvious neuronal changes in terms of morphology
O=c1ccn([C@@H]2O[C@H](CO)[C@@H](O)[C@H]2O)c(=O)[nH]1 [uridine],early neurogenesis,"[1]; 20 μM, three hours after switching to neural differentiation medium, FIG. 6B",Early neurogenesis was observed
same,duration of neuronal morphological changes,[1]; 0.5 mM,continued up to the 48-hour time course of the culture
same,effect to enhance early neurogenesis,[1]; 0.5 mM,demonstrated the strongest effect to enhance early neurogenesis
same,length of neurite outgrowth,[2]; 20 μM,good effects of neurogenesis
same,neurogenesis,"[2]; 20 μM, FIG. 6C",dramatically promoted neurogenesis
lactosylceramide,neurogenesis action,"[1]; 10 μM, FIG. 5D",exhibit neurogenesis action
phosphatidylethanolamine [PE],effect to enhance neurogenesis (neuronal morphology),"[1]; 20 μM, among 10, 20 and 40 μM tested, FIGS. 2C, 2D",demonstrated the strongest effect to enhance neurogenesis
sphingomyelin,neural differentiation,[1]; 40 μM,enhanced neural differentiation of hADSCs
same,extensions compared to negative control,[1]; even at low concentrations (10-40 μM tested),longer than negative control and much more numerous
